Peptide text beside a SMILES is read from it.
SMILES | logP
CNCC(O)c1ccc(O)c(OC)c1 (stereo not drawn) | -0.64
CC1(C)N=C(N)N=C(N)N1c1ccccc1 | 0.28
NS(=O)(=O)c1cccnc1 | -0.49
CNC(=NC#N)NCCSCc1ncccc1OC | 0.97
Cc1n[nH]c(C(=O)NCCc2ccccc2)c1[N+](=O)[O-] | 1.82
O=C(O)c1ccc2cccccc1-2 | 2.88
CS(=O)(=O)c1ccc2ncccc2c1 | 0.7
O=c1[nH]c(=O)n([C@H]2C[C@H](O)[C@@H](CO)O2)cc1C(F)(F)F | -0.46
c1ccc2nc3ccccc3cc2c1 | 3.4
CCOC(=O)c1ccccc1N | 2.57
CC(=O)Oc1ccc(C)cc1 | 2.11
Cc1c[nH]cn1 | 0.23
Cc1[nH]c(=O)n(C(C)(C)C)c(=O)c1Cl | 1.89
CC(=O)N[C@@H](Cc1ccc(O)cc1)C(=O)N[C@@H](CC(C)C)C(N)=O (Ac-Tyr-Leu-NH2) | 0.32
CCCCCCCC1(c2ccncc2)CCC(=O)NC1=O (stereo not drawn) | 3.44
Oc1ccc(Cl)c2ccccc12 | 3.94
CC1=CC(=O)c2ccccc2C1=O | 2.2
c1ccc2c(c1)ccc1c3ccc4ccccc4c3[nH]c21 | 6.4
CN(C)C(N(C)C)=S(I)c1cccc(C#N)c1 (stereo not drawn) | -1.1
CC12CCC(=O)C=C1CCC1C2C(O)CC2(C)C1CCC2(O)C(=O)COC(=O)CCCCCO (stereo not drawn) | 2.79
S=C=Nc1ccccc1 | 3.28
Nc1ccc(C(=O)Oc2ccccc2Cl)c(O)c1 | 3.72
O=C(O)Cc1c(Cl)ccc(Cl)c1Cl | 3.2

SMILES | logP
c1ccc(-c2ccncc2)cc1 | 2.59
COc1cc(SC)c(OC)cc1CCN | 1.81
COCCCc1ccccc1 | 2.7
CC1CN(N=O)CC(C)O1 (stereo not drawn) | 0.32
COc1cc2c(c(OC)c1OC)-c1ccc(N)c(=O)cc1[C@@H](NC(C)=O)CC2 | 0.3
CN(C)C(=N)N(C)C | 0.41
NS(=O)(=O)Nc1ccccc1 | 0.4
C=CC(N)=O | -0.67
CCCCCCOC1OC(CO)C(O)C(O)C1O (stereo not drawn) | 0.16
CN(C(=S)c1ccccc1)c1ccccc1 | 3.12
COc1ccc(NC(=O)NC(=N)N)cc1 | 0.56
CC(=O)Nc1ccc(Br)cc1 | 2.29
c1ccc(CNc2ccccc2)cc1 | 3.13
Clc1cc(Cl)c(-c2c(Cl)cc(Cl)cc2Cl)c(Cl)c1 | 7.55
O=C(O)c1cccc(Oc2ccccc2)c1 | 3.91
NCCCCCC(=O)O | -2.95
Brc1ccc2cccnc2c1 | 2.92
CC1(C)SC2C(NC(=O)C(C(=O)Oc3ccccc3)c3ccccc3)C(=O)N2C1C(=O)O (stereo not drawn) | 3.14
Nc1ccc(C(=O)Oc2ccc(F)cc2)c(O)c1 | 3.27
CNC(=O)Oc1ccc(SC)c(C)c1 | 2.47
CC(C)NC(C)C | 1.4
O=C(O)COc1cccc(C(F)(F)F)c1 | 2.36
ClC(Cl)(Cl)Cl | 2.83

SMILES | logP
Cc1cc(C)cc(O)c1 | 2.35
CC(=O)c1ccc2ncccc2c1 | 1.58
O=C(CN1CCCCC1)Nc1cccc(Br)c1 | 3.62
NC(=O)c1ccc(C(F)(F)F)cc1 | 1.71
N#Cc1cccc(C#N)c1 | 0.8
Clc1c(Cl)c(Cl)c2ccccc2c1Cl | 5.75
O=C(O)c1ccc(CO)cc1 | 0.93
CC[C@H](C)[C@H](NC(=O)[C@@H](NC(C)=O)[C@@H](C)O)C(N)=O (Ac-Thr-Ile-NH2) | -0.86
COP(=S)(OC)SCn1nnc2ccccc2c1=O | 2.75
CCCCOc1ccc([N+](=O)[O-])cc1 | 3.5
O=C(Nc1ccccc1)NC1CCCCC1 | 2.77
CN(C)CCc1cccnc1 | 0.82
Oc1ccc(Cc2ccc(O)cc2)cc1 | 2.91
O=[N+]([O-])c1ccco1 | 0.66
O=[N+]([O-])c1nccn1CC(O)CF (stereo not drawn) | -0.52
CCN1CC(C(O)C(CC2CCCCC2)NC(=O)C(Cc2c[nH]cn2)NC(=O)C(CC(=O)N2CC(OCOCCOC)C(OCOCCOC)C2)Cc2ccccc2)OC1=O (stereo not drawn) | 1.87
CCN(CC)CCSC(=NO)c1nc(-c2cccc3ccccc23)no1 | 3.87
NNC(=O)c1ccc([N+](=O)[O-])cc1 | 0.35
NS(=O)(=O)c1ccc(S(=O)(=O)CCO)s1 | -0.54
Nc1cc(N2CCCCC2)nc(N)[n+]1[O-] | 1.24
CNC(=O)OCc1cccc(COC(=O)NC)n1 | 0.24
ClC=C(Cl)Cl | 2.42
c1ccc(N2CCCCC2)cc1 | 2.98

SMILES | logP
CCCOC | 1.21
CCN(CC)CCNC(=O)c1cc(S(=O)(=O)CC)c(N)cc1OC | 1.7
COc1ccccc1OCC(=O)O | 0.98
Nc1nc(N)c2nc(-c3ccccc3)c(N)nc2n1 | 0.98
CC(C)OC(=O)C(C(=O)OC(C)C)=C1SCCS1=O (stereo not drawn) | 1.6
CCCCC1(c2ccncc2)CCC(=O)NC1=O (stereo not drawn) | 1.68
COCc1ccc(C(=O)O)cc1 | 1.76
CC(C)COC(=O)c1ccccc1C(=O)OCC(C)C | 4.11
CCCSP(=O)(OCC)Oc1ccc(Br)cc1Cl (stereo not drawn) | 4.68
C=CCc1ccccc1 | 3.23
CCOC=O | 0.23
COC1C(O)C(C)OC(OC2CCC3(C)C(CCC4C3CCC3(C)C4(O)CC(O)C34C=CC(=O)OC4)C2)C1O (stereo not drawn) | 0.59
Nc1ccc(N)cc1 | -0.3
COc1cc(CCN)cc(OC)c1OC(C)C | 1.52
O=C(Nc1ccccc1)Oc1ccccc1 | 3.3
CC(C)NCC(O)COc1ccccc1 (stereo not drawn) | 1.72
CC(Cl)[N+](=O)[O-] (stereo not drawn) | 1.1
CCCCBr | 2.75
CS(=O)(=O)Nc1ccc(Cl)cc1 | 1.85
CC(=O)ONc1ccnc2ccccc12 | 0.97
O=C(O)COc1ccc(Cl)c(I)c1 | 3.1
Fc1c(F)c(F)c(F)c(F)c1F | 2.55
c1ccc(Nc2ccc3ccccc3c2)cc1 | 4.38

SMILES | logP
CC(=O)c1cccs1 | 1.25
Nc1nnco1 | -1.44
NS(=O)(=O)CCCOc1ccc([N+](=O)[O-])cc1 | 0.97
ClC1CC(Cl)C(Cl)C(Cl)C1Cl (stereo not drawn) | 3.53
c1ccc(-c2csnn2)cc1 | 2.42
CC(C)NC(=O)c1cccnc1 | 0.59
CCCCCCCCOC(N)=O | 2.84
CNC(=O)Oc1cc(C)c(SC)c(C)c1 | 2.92
CSc1ccc(C(=O)O)cc1 | 2.74
CCCCOC(=O)c1cccnc1 | 2.27
CC(=O)OCc1coc(Cc2ccccc2)c1 | 3.24
CC12CCC(=O)C=C1CCC1C3CCC(O)(C(=O)CO)C3(C)CC(O)C12F (stereo not drawn) | 1.67
N#Cc1ccco1 | 0.96
CCCCC(=O)O[C@]1(C(=O)CO)[C@@H](C)C[C@H]2[C@@H]3CCC4=CC(=O)C=C[C@]4(C)[C@@]3(F)[C@@H](O)C[C@@]21C | 3.6
CC(C)CC#N | 1.07
O=C1NCN(c2ccccc2)C12CCN(CCCC(c1ccc(F)cc1)c1ccc(F)cc1)CC2 | 5.86
CCNc1nc(Cl)nc(NC(C)(C)C#N)n1 | 2.22
OCCN1CCN(C2CC(c3ccc(F)cc3)c3ccc(C(F)(F)F)cc32)CC1 (stereo not drawn) | 4.39
Cc1ccccc1NS(=O)(=O)c1ccc(N)cc1 | 2.03
CN(C)C(N(C)C)=S(I)c1ccc(Cl)cc1Cl (stereo not drawn) | 0.47
COC(=O)CCCCCC(=O)OCC(=O)C1(O)CCC2C3CCC4=CC(=O)CCC4(C)C3C(O)CC21C (stereo not drawn) | 3.7
C=CC=C | 1.99
CO | -0.77

SMILES | logP
O=NN(CCCl)C(=O)NC1CCCCC1Cl (stereo not drawn) | 2.73
CC1=C(N2CC2)C(=O)C(CCO)=C(N2CC2)C1=O | 0.49
S=C1CCCCCCN1 | 1
C[C@@H]1C[C@@H]([C@H](O)CC2CC(=O)NC(=O)C2)C(=O)[C@@H](C)C1 | 0.55
Oc1ccccc1I | 2.65
Clc1ccc(-c2cccc(Cl)c2Cl)cc1 | 5.42
CCNNC(=O)COc1ccccc1 | 1
O=C1CC(c2ccc(C(F)(F)F)cc2)Cc2c1c(=O)c1cc(Cl)ccc1n2O (stereo not drawn) | 3.46
CC(=O)NCC(=O)N[C@@H](Cc1ccccc1)C(N)=O (Ac-Gly-Phe-NH2) | -0.56
Nc1nc(N)nc(-c2ccccc2Cl)n1 | 1.19
CCC1OC(=O)C(C)C(OC2CC(C)(OC)C(O)C(C)O2)C(C)C(OC2OC(C)CC(N(C)C)C2O)C(C)(O)CC(C)C(=O)C(C)C(O)C1C (stereo not drawn) | 3.12
O=C(Nc1ncnc2c1ncn2[C@H]1C[C@H](O)[C@@H](CO)O1)c1ccccc1 | 0.22
CCc1cccnc1 | 1.66
CC(=O)c1ccccc1S(I)=C(N(C)C)N(C)C (stereo not drawn) | -0.81
CCCCSC#N | 2.03
CC(C)C(=O)NC(N)=O | 0.04
NC(=O)c1ccncc1 | -0.28
Clc1ccc2ncccc2c1 | 2.73
CCCCCCCCCCCCOS(=O)(=O)[O-].[Na+] | 1.6
Cc1cn(C2OC(CO)C(O)C2O)c(=O)nc1N (stereo not drawn) | -2.01
COC(=O)C(Cc1ccccc1)NC(C)=O (stereo not drawn) | 0.92
CCOC(=O)C(O)c1ccccc1 (stereo not drawn) | 1.53
C[C@@H](N)[C@@H](O)c1ccccc1 | 0.67

SMILES | logP
COP(=S)(OC)Oc1ccc([N+](=O)[O-])c(C(C)C)c1 | 4.05
O=c1oc2ccccc2c(O)c1Cc1c(O)c2ccccc2oc1=O | 2.07
CC(=O)c1ccccc1OCC(=O)O | 1.25
CN(C)C(N(C)C)=S(I)c1ccc(Cl)cc1[N+](=O)[O-] (stereo not drawn) | -0.09
NC(=O)OCCC1=C(N2CC2)C(=O)C(Br)=C(N2CC2)C1=O | 0.68
O=NN1CCCC1 | -0.19
OCCN1CCN(CCCC2c3ccc(F)cc3Sc3ccc(C(F)(F)F)cc32)CC1 (stereo not drawn) | 4.47
CCC(=O)OC1(C(=O)CCl)C(C)CC2C3CCC4=CC(=O)C=CC4(C)C3C(=O)CC21C (stereo not drawn) | 3.3
Nc1ccc(CO)cc1 | -0.22
N#Cc1c2ccccc2cc2ccccc12 | 4.26
COC(=O)c1ccccc1C | 2.75
CCOCCOC(=O)C(C#N)=C(CC)Nc1ccc(N)cc1 | 2.27
COCC(C)OC (stereo not drawn) | -0.09
CN(C)c1ccncc1 | 1.34
COc1ccc2cnccc2c1 | 2.22
CC(=O)Oc1ccc(C(N)=O)cc1 | 0.27
CN(C)C | 0.16
CC(C)C(=O)C(C)C | 1.86
Nc1ccc(S(=O)(=O)Nc2ccnn2-c2ccccc2)cc1 | 1.52
Clc1cccc(-c2cccc(Cl)c2Cl)c1Cl | 6.18
